Article PMC8874984, “Improved Cell-Potent and Selective Peptidomimetic Inhibitors of Protein N-Terminal Methyltransferase 1” (Molecules, 2022)
Like-named read-outs stand apart in the source and are kept apart here.

How the values were obtained:
NTMT1 [1] = biological target: T1, NTMT1 (Homo sapiens, UniProt Q9BV86); assay: SAHH-coupled fluorescence assay of NTMT1 inhibition; type: biochemical; conditions: for IC50: SAHH-coupled fluorescence assay, n = 2, mean ± SD, read-out: IC50; for Expt. ΔGbind ± σ: estimated from the IC50 values in Table 1; for IC50/IC50 (DC541): ratio of NTMT1 IC50 to that of DC541
T1 construct: made in house
T1 sequence (Q9BV86 1-223): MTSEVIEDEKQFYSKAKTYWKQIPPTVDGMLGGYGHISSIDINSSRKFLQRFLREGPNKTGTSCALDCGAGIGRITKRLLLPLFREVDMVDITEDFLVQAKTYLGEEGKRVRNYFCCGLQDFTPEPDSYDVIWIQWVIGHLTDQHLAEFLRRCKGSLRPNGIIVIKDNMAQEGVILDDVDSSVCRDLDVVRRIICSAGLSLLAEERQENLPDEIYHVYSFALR

[2] = test system: cellular α-N-terminal methylation level in HCT116 cells; assay: Cellular N-terminal methylation level, Western blot with anti-me3-SPK antibody; type: cell-based; conditions: Homo sapiens, HCT-116, cellular N-terminal methylation inhibition, n = 2
Protocol: Next, we investigated the effects of all peptidomimetic inhibitors with GI50 > 100 µM and IC50 < 1 µM on the cellular α-N-terminal methylation level in HCT116 cells (Table 2). Then, we examined the top three cell-potent peptidomimetic inhibitors 1d–f on the dose-response of inhibition of cellular N-terminal methylation levels. […] As the biochemical IC50 value of GD562 was about three-fold higher than DC541, we proposed that the improved cellular inhibition of GD562 may be attributed to its increased permeability with higher cLogP than DC541.
Figure 5 Inhibition of cellular N-terminal methylation by peptidomimetic inhibitors in HCT116 cells. Representative Western blot results of the effects of GD562 (A), GD564 (B), and GD573 (C) on the cellular methylation level. Image quantification was performed using ImageJ software (NIH). […] All experiments were performed in duplicate (n = 2). […]
Cellular N-methylation level.
The gel was transferred to a
system. Image quantification was done using ImageJ software (NIH). All bands were compared
OrganicsTM, AC418900050) dissolved in sterile 1 x PBS. […]

in vitro = conditions: PAMPA
[3] = Cytotoxicity by alamarBlue assay in HCT116 cells; conditions: human, GI50, HCT116 cells
Protocol: (§1) Cell viability assay. HCT116 cells were seeded as 5,000 cells/well on 96-well plates in the
(§2) presence of 1x PBS or DC541 at different concentrations for 24, 48, or 72 hours. Cell viability
(§3) was assessed using 0.2 mg/ml resazurin solutions prepared from resazurin sodium salt (Acros
(§4) OrganicsTM, AC418900050) dissolved in sterile 1 x PBS. Then, the cells were incubated with
(§5) 10 µl resazurin solution (10% of cell culture volume) for four hours at 37 °C. The fluorescence
(§6) Cell viability was calculated as 100% × (fluorescence of treated cells – fluorescence of
(§7) background controls) / (fluorescence of 1x PBS controls – fluorescence of background

me3-RCC1 [4] = test system: me3-RCC1; parameters: method as in PMID 33738076; conditions: cited from earlier work
me3-SET [5] = test system: me3-SET; parameters: method as in PMID 33738076; conditions: even at 300 µM in HCT116 cells; cited from earlier work
[6] = test system: NTMT1 knockout HCT116 cells; assay: Cytotoxicity by alamarBlue assay in NTMT1 knockout HCT116 cells; type: cell-based, human; conditions: wild-type and NTMT1 knockout HCT116 cells
HCT116 cells = assay: Cytotoxicity by alamarBlue assay in HCT116 cells
Protocol: as §1, §2, §3, §4, §5, §6, §7

me3-RCC1 [7] = assay: Cellular me3-RCC1 level in HCT116 cells; type: cell-based, human
me3-SET [8] = assay: Cellular me3-SET level in HCT116 cells; type: cell-based, human
G9a = biological target: T2, G9a (Homo sapiens, UniProt Q96KQ7); assay: In-house selectivity study, fluorescence assay: G9a; type: biochemical; conditions: read-out: inhibition of enzyme activity
T2 sequence (Q96KQ7 1-1210): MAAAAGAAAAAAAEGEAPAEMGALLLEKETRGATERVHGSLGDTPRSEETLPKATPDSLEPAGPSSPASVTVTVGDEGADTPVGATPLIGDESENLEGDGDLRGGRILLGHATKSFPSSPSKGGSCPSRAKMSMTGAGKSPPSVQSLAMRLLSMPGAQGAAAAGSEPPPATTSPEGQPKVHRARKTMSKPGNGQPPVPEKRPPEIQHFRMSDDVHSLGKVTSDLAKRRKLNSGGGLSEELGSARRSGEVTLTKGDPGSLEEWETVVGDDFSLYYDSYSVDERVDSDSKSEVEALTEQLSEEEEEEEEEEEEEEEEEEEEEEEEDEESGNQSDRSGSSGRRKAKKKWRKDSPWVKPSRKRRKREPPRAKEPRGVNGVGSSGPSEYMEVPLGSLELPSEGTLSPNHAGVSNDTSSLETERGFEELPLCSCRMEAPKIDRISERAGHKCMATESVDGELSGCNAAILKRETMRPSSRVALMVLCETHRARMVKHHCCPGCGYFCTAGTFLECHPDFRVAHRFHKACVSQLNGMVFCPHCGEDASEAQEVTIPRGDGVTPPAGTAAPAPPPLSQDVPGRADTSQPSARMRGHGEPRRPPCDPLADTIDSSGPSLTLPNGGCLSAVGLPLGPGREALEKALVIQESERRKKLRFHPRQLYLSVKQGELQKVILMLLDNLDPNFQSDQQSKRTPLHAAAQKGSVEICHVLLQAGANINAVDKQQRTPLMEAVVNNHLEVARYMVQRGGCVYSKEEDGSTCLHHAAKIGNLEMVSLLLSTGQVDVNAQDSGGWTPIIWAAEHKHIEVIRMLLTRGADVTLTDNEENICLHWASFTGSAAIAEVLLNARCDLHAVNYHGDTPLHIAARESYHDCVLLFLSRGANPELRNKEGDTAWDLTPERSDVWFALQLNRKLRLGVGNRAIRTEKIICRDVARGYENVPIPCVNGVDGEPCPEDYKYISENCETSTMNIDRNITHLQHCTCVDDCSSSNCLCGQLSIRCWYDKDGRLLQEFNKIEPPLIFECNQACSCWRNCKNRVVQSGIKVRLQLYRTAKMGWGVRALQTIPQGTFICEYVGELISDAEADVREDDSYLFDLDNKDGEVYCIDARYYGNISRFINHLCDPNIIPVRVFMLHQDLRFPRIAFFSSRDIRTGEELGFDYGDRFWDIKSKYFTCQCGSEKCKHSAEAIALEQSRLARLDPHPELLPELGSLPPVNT

SETD7 = biological target: T3, SETD7 (Homo sapiens, UniProt Q8WTS6); assay: In-house selectivity study, fluorescence assay: SETD7; type: biochemical; conditions: read-out: inhibition of enzyme activity
T3 construct: made in house
T3 sequence (Q8WTS6 1-366): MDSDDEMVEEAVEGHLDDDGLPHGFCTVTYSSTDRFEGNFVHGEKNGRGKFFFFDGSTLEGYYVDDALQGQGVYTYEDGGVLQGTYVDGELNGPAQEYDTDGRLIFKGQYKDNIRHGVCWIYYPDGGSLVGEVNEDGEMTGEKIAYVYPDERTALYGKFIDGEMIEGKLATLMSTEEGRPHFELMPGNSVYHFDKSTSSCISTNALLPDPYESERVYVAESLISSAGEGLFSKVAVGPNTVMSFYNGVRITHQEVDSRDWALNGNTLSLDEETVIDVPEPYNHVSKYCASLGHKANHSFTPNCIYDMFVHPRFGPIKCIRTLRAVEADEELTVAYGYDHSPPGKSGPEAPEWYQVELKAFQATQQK

PRMT1 = biological target: T4, PRMT1 (Homo sapiens, UniProt Q99873); assay: In-house selectivity study, fluorescence assay: PRMT1; type: biochemical; conditions: read-out: inhibition of enzyme activity
T4 construct: made in house
T4 sequence (Q99873 whole entry, species assumed): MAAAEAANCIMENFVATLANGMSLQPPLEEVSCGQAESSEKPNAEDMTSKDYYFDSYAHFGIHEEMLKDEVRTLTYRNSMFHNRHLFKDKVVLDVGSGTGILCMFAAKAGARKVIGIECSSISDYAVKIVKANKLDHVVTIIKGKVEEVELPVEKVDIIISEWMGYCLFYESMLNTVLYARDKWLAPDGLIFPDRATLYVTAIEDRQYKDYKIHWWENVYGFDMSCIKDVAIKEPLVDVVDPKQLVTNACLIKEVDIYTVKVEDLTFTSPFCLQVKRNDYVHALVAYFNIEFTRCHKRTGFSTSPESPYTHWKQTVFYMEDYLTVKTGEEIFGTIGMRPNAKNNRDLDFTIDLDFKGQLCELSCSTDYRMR

NNMT = biological target: T5, NNMT (Homo sapiens, UniProt P40261); assay: In-house selectivity study, fluorescence assay: NNMT; type: biochemical; conditions: read-out: inhibition of enzyme activity
T5 construct: made in house
T5 sequence (P40261 1-264): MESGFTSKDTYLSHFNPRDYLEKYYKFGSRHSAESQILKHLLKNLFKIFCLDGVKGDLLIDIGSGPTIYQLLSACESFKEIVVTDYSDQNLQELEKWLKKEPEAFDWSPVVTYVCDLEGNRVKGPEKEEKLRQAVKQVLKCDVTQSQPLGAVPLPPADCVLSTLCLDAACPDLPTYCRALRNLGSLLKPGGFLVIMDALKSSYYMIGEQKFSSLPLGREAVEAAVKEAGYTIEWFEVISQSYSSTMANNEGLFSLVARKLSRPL

TbPRMT7 = TbPRMT7 (Trypanosoma brucei brucei, UniProt Q582G4); assay: biochemical; conditions: read-out: inhibition of enzyme activity
Sequence of TbPRMT7 (Q582G4 whole entry): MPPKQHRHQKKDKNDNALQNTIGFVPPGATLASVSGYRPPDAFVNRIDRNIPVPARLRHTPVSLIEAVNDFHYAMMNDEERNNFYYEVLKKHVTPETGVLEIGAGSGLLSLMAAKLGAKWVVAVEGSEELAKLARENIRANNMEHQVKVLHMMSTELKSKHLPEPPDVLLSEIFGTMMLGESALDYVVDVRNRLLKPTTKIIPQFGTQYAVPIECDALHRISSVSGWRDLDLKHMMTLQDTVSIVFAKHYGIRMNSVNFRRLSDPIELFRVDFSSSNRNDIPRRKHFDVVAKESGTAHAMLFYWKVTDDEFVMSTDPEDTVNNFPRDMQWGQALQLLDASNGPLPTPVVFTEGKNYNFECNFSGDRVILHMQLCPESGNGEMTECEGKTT

SAHH = SAHH (Homo sapiens, UniProt P23526); assay: In-house selectivity study, fluorescence assay: coupling enzyme SAHH; type: biochemical; conditions: n = 2
Sequence of SAHH (P23526 whole entry, species assumed): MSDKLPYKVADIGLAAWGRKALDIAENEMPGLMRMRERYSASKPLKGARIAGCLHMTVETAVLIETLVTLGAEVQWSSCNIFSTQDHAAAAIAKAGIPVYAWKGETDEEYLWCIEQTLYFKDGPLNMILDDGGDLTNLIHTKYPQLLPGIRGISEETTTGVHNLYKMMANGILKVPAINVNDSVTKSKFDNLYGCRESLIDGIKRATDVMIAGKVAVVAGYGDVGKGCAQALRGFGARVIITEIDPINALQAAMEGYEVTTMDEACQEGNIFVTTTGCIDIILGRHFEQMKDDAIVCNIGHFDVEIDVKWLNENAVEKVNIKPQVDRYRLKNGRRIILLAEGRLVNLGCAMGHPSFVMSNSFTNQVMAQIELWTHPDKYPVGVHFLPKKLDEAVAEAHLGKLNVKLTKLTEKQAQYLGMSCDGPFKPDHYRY
Protocol: Figure 6 In-house selectivity studies of GD562. The compound was tested at 100, 30, and 10 µM (n = 2). Both SAM and substrate are at their Km values.

NTMT1 [9] = biological target: T1, NTMT1; conditions: cited from earlier work

Structure (SMILES) | IC50 (NTMT1 [1]) [µM] | Expt. ΔGbind ± σ (NTMT1 [1]) [kcal/mol] | IC50/IC50 (DC541) (NTMT1 [1]) | IC50 [2] [µM] | Papp (in vitro) [×10⁻⁶ cm/s] | GI50 [3] [µM] | also measured
NCCCCC(NC(=O)C1CCCN1C(=O)Cc1cccc2ccccc12)C(=O)NCc1ccccc1 (stereo not shown) [Compound 1c] | 0.91 ± 0.03 | -8.24 ± 0.03 | 2.7 | < 300 | 0.24 ± 0.06 | > 300 | –
NCCCCC(NC(=O)C1CCCN1C(=O)Cc1cccc2ccccc12)C(=O)Nc1ccccc1C(N)=O (stereo not shown) [DC541, reference compound] | 0.34 ± 0.03 | -8.82 ± 0.07 | 1.0 | – | – | – | IC50 (me3-RCC1 [4]; HCT116 cells, read-out: cellular IC50 on the me3-RCC1 level): ~100 µM; inhibition of me3-SET level (me3-SET [5]): did not show any inhibition
CN(CCc1ccccc1)C(=O)C(CCCCN)NC(=O)C1CCCN1C(=O)Cc1cccc2ccccc12 (stereo not shown) [Compound 1i] | 1.7 ± 0.07 | – | 5.0 | – | – | – | –
NCCCCC(NC(=O)C1CCCN1C(=O)Cc1cccc2ccccc12)C(=O)NCC1CCCCC1 (stereo not shown) [Compound 1f] | 0.94 ± 0.03 | -8.22 ± 0.03 | 2.8 | ~100 | 0.47 ± 0.07 | > 300 | –
NCCCCC(NC(=O)C1CCCN1C(=O)Cc1cccc2ccccc12)C(=O)Nc1cccc(Br)c1 (stereo not shown) [Compound 1a] | 0.17 ± 0.008 | -9.24 ± 0.04 | 0.50 | – | – | < 70 | GI50 in NTMT1 knockout versus wild-type HCT116 cells [6]: comparable GI50 value
NCCCC[C@H](NC(=O)[C@@H]1CCCN1C(=O)Cc1cccc2ccccc12)C(=O)NCc1ccc(Br)cc1 [Compound 1h] | 0.82 ± 0.07 | -8.30 ± 0.07 | 2.4 | < 300 | 0.9 ± 0.2 | ~130 | GI50 (HCT116 cells): 135 ± 23 µM
NCCCCC(NC(=O)C1CCCN1C(=O)Cc1cccc2ccccc12)C(=O)NCCc1ccccc1 (stereo not shown) [Compound 1d] | – | – | – | ~50 | 0.26 ± 0.06 | > 300 | increase in cellular inhibition activity on me3-RCC1 compared to DC541 (me3-RCC1 [7]): over 2 fold; IC50 (me3-RCC1 [7]; Homo sapiens, HCT-116): ~50 µM; increase of inhibitory activity for the SET protein compared with DC541 (me3-SET [8]): over 6 fold; IC50 (me3-SET [8]; Homo sapiens, HCT-116): ~50 µM; inhibition at 100 µM (G9a): ≤ 50%; inhibition at 100 µM (SETD7): ≤ 50%; inhibition at 100 µM (PRMT1): ≤ 50%; inhibition at 100 µM (NNMT): ≤ 50%; inhibition at 100 µM (TbPRMT7): ≤ 50%; inhibition at 100 µM (SAHH): ≤ 50%
NCCCC[C@H](NC(=O)[C@@H]1CCCN1C(=O)Cc1ccc(O)cc1)C(=O)N[C@@H](CCCN=C(N)N)C(N)=O [BM30] | – | – | – | – | – | – | selectivity for NTMT1/2 among a panel of 41 methyltransferases (NTMT1 [9]): over 100 fold; IC50 (NTMT1 [9]; previously reported inhibitor): 0.89 ± 0.1 µM; IC50 (me3-RCC1 [4]; Figure 1, previously reported inhibitors, read-out: Celluar IC50): > 1000 µM
NCCCCC(NC(=O)C1CCCN1C(=O)Cc1cccc2ccccc12)C(=O)NCCc1ccc(-c2ccccc2)cc1 (stereo not shown) [Compound 1j] | – | – | 7.4 | – | 0.9 ± 0.3 | – | –
NCCCC[C@H](NC(=O)[C@@H]1CCCN1C(=O)Cc1cccc2ccccc12)C(=O)NCc1cccc(Br)c1 [Compound 1g] | 0.58 ± 0.03 | -8.51 ± 0.04 | 1.7 | < 300 | 0.6 ± 0.1 | ~130 | GI50 (HCT116 cells): 128 ± 20 µM
NCCCCC(NC(=O)C1CCCN1C(=O)Cc1cccc2ccccc12)C(=O)Nc1ccc(Br)cc1 (stereo not shown) [Compound 1b] | 0.18 ± 0.007 | -9.20 ± 0.03 | 0.53 | – | – | < 70 | –
NCCCCC(NC(=O)C1CCCN1C(=O)Cc1cccc2ccccc12)C(=O)NCCc1cccc(-c2ccccc2)c1 (stereo not shown) [Compound 1k] | – | – | 2.0 | – | 1.3 ± 0.4 | < 70 | GI50 (HCT116 cells): 65 ± 7 µM
